Measured values reported in patent US8124637B2, “Anthra [1, 2-d]imidazole-6,11-dione derivatives, preparation method and application thereof” (National Defense Medical Center, priority 2010, dated 2012).
Read-outs that look alike come from different tables or passages of the source.

How the values were obtained:
[1] = system: hTERT promoter (PhTERT) expression; experiment: SEAP assay (PhTERT-SEAP reporter, H1299); type: cell-based, human; conditions: for activity at 1 µM / activity at 10 µM / activity at 100 µM: Homo sapiens, NCI-H1299, PhTERT-SEAP (H1299); for activity at 1 µM: read-out: Relative SEAP activity (%); for activity at 10 µM / activity at 100 µM: read-out: Relative SEAP activity (%) (converted); for Relative SEAP activity (%): PhTERT-SEAP (H1299)
Description: H1299 were grown in RPMI 1640 media supplemented with 10% fetal bovine serum, 100 units/mL penicillin and […] streptomycin in a humidified atmosphere with 5% CO2 at 37° C. Culture media were changed every three days. To establish stable cell lines that the expression of hTERT could be monitored by a reporter system, a about 3.3 kbp DNA fragment ranging from −3338 to +1 bp of the hTERT gene (hTERT promoter, PhTERT) was subcloned upstream to a secreted alkaline phosphatase gene (SEAP) and transfected into H1299 bp electroporation. The stable clones were selected using G418. The stable clones derived from H1299 were cultured using conditions that are similar to their parental cells.
Secreted alkaline phosphatase was used as the reporter system to monitor the transcriptional activity of hTERT. Here, about 10^4 cells each were grown in 96-well plates and incubated at 37° C. for 24 hours and changed with fresh media. Varying amounts of drugs were added and cells were incubated for another 24 hours. Culture media were collected and heated at 65° C. for 10 min to inactivate heat-labile phosphatases. An equal amount of SEAP buffer (2 M diethanolamine, 1 mM MgCl2, and 20 mM L-homoarginine) was added to the media and p-nitrophenyl phosphate was added to a final concentration of 12 mM. Absorptions at 405 nm were taken, and the rate of absorption increase is determined (the increasing rate of absorbance at 405 nm was used to represent the activity of SEAP).

in vitro = conditions: human, Relative MTT viability (%)
[2] = MTT assay (relative cell survival), H1299; conditions: human, H1299 non-small cell lung cancer cells (PhTERT-SEAP), Relative MTT viability (%)

Row | SMILES | activity at 1 µM ([1]; 1 μM) | activity at 10 µM ([1]; 10 μM) | activity at 100 µM [1] | viability at 72 h, 1 µM (in vitro) | viability at 72 h, 10 µM (in vitro) | viability at 72 h, 100 µM (in vitro) | Relative MTT viability (%) (H1299 cells; human, 72 h, 100 µM) | Relative SEAP activity (%) ([1]; 1 μM) | Relative SEAP activity (%) ([1]; 10 μM) | Relative MTT viability (%) (H1299 cells; 1 µM) | Relative MTT viability (%) (H1299 cells; 10 µM) | viability at 72 h, 1 µM [2] | viability at 72 h, 10 µM [2] | viability at 72 h, 100 µM [2] | Relative MTT viability (%) (H1299 cells; human, 72 h, 10 µM)
1 | Nc1ccc2c(c1N)C(=O)c1ccccc1C2=O [1,2-diaminoanthraquinone, reference compound] | 98.5 ± 11.7% | 77.3 ± 11.6% | 18.2 ± 4.45% | 105 ± 9.37% | 95.5 ± 3.75% | 39.3 ± 8.84% | – | – | – | – | – | – | – | – | –
2 | O=C1c2ccccc2C(=O)c2c1ccc1nc(CCl)[nH]c21 [CL01, 2-(chloromethyl)-1H-anthra[1,2-d]imidazole-6,11-dione] | 69.2 ± 1.89% | -0.58 ± 1.16% | 2.87 ± 1.42% | 82.3 ± 6.19% | < 50% | – | −5.28 ± 1.13% | – | – | – | – | – | – | – | –
3 | CN(Cc1nc2ccc3c(c2[nH]1)C(=O)c1ccccc1C3=O)Cc1c2ccccc2cc2ccccc12 [CL11, 2-(((anthracen-10-yl)-N-methylmethanamino)methyl)-1H-anthra[1,2-d]imidazole-6,11-dione] | – | – | – | – | – | – | – | 101.69 ± 5.82% | 77.46 ± 6.40% | 98.03 ± 4.48% | 83.80 ± 5.64% | – | – | – | –
4 | O=C1c2ccccc2C(=O)c2c1ccc1nc(CN3CCOCC3)[nH]c21 [CL21, 2-(morpholinomethyl)-1H-anthra[1,2-d]imidazole-6,11-dione] | 102 ± 4.81% | 97.3% | 25.6% | – | – | – | – | – | – | – | – | 89.8 ± 2.58% | 70.8% | 13.4% | –
5 | O=C1c2ccccc2C(=O)c2c1ccc1nc(CN3CCSCC3)[nH]c21 [CL22, 2-(thiomorpholinomethyl)-1H-anthra[1,2-d]imidazole-6,11-dione] | 115 ± 2.45% | 76.7% | 4.62% | – | – | – | – | – | – | – | – | 91.8 ± 3.61% | 77.5% | 0.93% | –
6 | O=C1c2ccccc2C(=O)c2c1ccc1nc(CN3CCSC3)[nH]c21 [CL23, 2-((thiazolidin-3-yl)methyl)-1H-anthra[1,2-d]imidazole-6,11-dione] | 106 ± 3.01% | 85.6% | 11.9% | – | – | – | – | – | – | – | – | 89.3 ± 4.79% | 75.5% | 5.18% | –
7 | C=CCN1CCN(Cc2nc3ccc4c(c3[nH]2)C(=O)c2ccccc2C4=O)CC1 [CL26, 2-((4-allylpiperazin-1-yl)methyl)-1H-anthra[1,2-d]imidazole-6,11-dione] | 87.2 ± 1.82% | 16.7% | -6.77% | – | – | – | – | – | – | – | – | 86 ± 3.37% | 44.8% | – | –
8 | O=C1c2ccccc2C(=O)c2c1ccc1nc(CN3CCN(c4ncccn4)CC3)[nH]c21 [CL29, 2-((4-(pyrimidin-2-yl)piperazin-1-yl)methyl)-1H-anthra[1,2-d]imidazole-6,11-dione] | 111 ± 3.55% | 92.2% | 19.4% | – | – | – | – | – | – | – | – | 85.5 ± 3.17% | 73.7% | 28.2% | –
9 | O=C1c2ccccc2C(=O)c2c1ccc1nc(CN3CCN(c4ccccc4F)CC3)[nH]c21 [CL30, 2-((4-(2-fluorophenyl)piperazin-1-yl)methyl)-1H-anthra[1,2-d]imidazole-6,11-dione] | 103 ± 3.44% | 78.2% | -0.29% | – | – | – | – | – | – | – | – | 88.4 ± 2.16% | 76.7% | 14.8% | –
10 | N#Cc1ccccc1N1CCN(Cc2nc3ccc4c(c3[nH]2)C(=O)c2ccccc2C4=O)CC1 [CL31, 2-((4-(2-cyanophenyl)piperazin-1-yl)methyl)-1H-anthra[1,2-d]imidazole-6,11-dione] | 106 ± 4.67% | 56.7% | 5.59% | – | – | – | – | – | – | – | – | 78.3 ± 5.02% | 61.7% | 21.6% | –
11 | COc1cccc(N2CCN(Cc3nc4ccc5c(c4[nH]3)C(=O)c3ccccc3C5=O)CC2)c1 [CL32, 2-((4-(3-methoxyphenyl)piperazin-1-yl)methyl)-1H-anthra[1,2-d]imidazole-6,11-dione] | 105 ± 5.64% | < 50% | 3.33% | 81.3 ± 9.72% | > 50% | 23.9% | – | – | – | – | – | – | – | – | –
12 | O=C1c2ccccc2C(=O)c2c1ccc1nc(CN3CCN(Cc4ccccc4)CC3)[nH]c21 [CL33, 2-((4-benzylpiperazin-1-yl)methyl)-1H-anthra[1,2-d]imidazole-6,11-dione] | 97.8 ± 7.2% | – | -2.7% | – | – | – | – | – | – | – | – | 92.6 ± 1.56% | > 50% | 12.7% | –
13 | O=C(CCCl)Nc1ccc2c(c1NC(=O)CCCl)C(=O)c1ccccc1C2=O [CL34, 1,2-bis(3-chloropropionamido)anthraquinone] | 87.4 ± 4.51% | 12.5 ± 4.35% | -2.74 ± 0.61% | – | – | – | – | – | – | – | – | 94.1 ± 3.21% | < 50% | 5.85 ± 2.1% | –
14 | CN1CCN(CCc2nc3ccc4c(c3[nH]2)C(=O)c2ccccc2C4=O)CC1 [CL36, 2-(2-(4-methylpiperazin-1-yl)ethyl)-1H-anthra[1,2-d]imidazole-6,11-dione] | 73.9 ± 3.2% | 7.1% | -3.06% | – | – | – | – | – | – | – | – | 87.2 ± 6.98% | < 50% | – | –
15 | O=C1c2ccccc2C(=O)c2c1ccc1nc(CCN3CCN(c4ccccc4)CC3)[nH]c21 [CL37, 2-(2-(4-phenylpiperazin-1-yl)ethyl)-1H-anthra[1,2-d]imidazole-6,11-dione] | 104 ± 4.96% | 92.7% | 36.6% | 94 ± 0.98% | 96.5% | – | – | – | – | – | – | – | – | – | –
16 | O=C1c2ccccc2C(=O)c2c1ccc1nc(CCN3CCN(c4ncccn4)CC3)[nH]c21 [CL39, 2-(2-(4-(pyrimidin-2-yl)piperazin-1-yl)ethyl)-1H-anthra[1,2-d]imidazole-6,11-dione] | 83 ± 3.61% | < 50% | -8.09% | – | – | – | – | – | – | – | – | 90.7 ± 5.81% | – | – | –
17 | O=C1c2ccccc2C(=O)c2c1ccc1nc(CCN3CCN(Cc4ccccc4)CC3)[nH]c21 [CL40, 2-(2-(4-benzylpiperazin-1-yl)ethyl)-1H-anthra[1,2-d]imidazole-6,11-dione] | 73 ± 8.24% | – | -7.29 ± 0.0949% | – | – | – | – | – | – | – | – | 95.6 ± 8.22% | > 50% | 6.65% | –
18 | COc1cccc2c1C(=O)c1c(O)c3c(c(O)c1C2=O)C[C@@](O)(C(=O)CO)C[C@@H]3O[C@H]1C[C@H](N)[C@H](O)[C@H](C)O1 [doxorubicin, reference compound] | 33.8 ± 3.22% | 13.6 ± 3.56% | 5.18 ± 4.01% | 17.1 ± 5.37% | – | – | −11.38 ± 4.34% | – | – | – | – | – | – | – | −9.79 ± 2.78%
19 | O=C1c2c(O)ccc(O)c2C(=O)c2c(NCCNCCO)ccc(NCCNCCO)c21 [mitoxantrone, reference compound] | 20.8 ± 1.56% | 9.92 ± 4.8% | 7.19 ± 1.59% | 23.7 ± 8.06% | – | – | −0.44 ± 1.01% | – | – | – | – | – | – | – | −8.51 ± 1.13%
